Counter-ions that a name gives are not always drawn.
Assays:
[1] = Influence of plasticiser type on the MFFT of Aquacoat dispersion; type: physicochemical; settings: plasticiser added as emulsion
Protocol: (§1) Two different methods were used to evaluate the influence of plasticiser type, quantity and incorporation technique on the MFFT on Surelease® EA7100 and Aquacoat® ECD30. The minimum film-forming temperature (MFFT) is the lowest temperature at which the film-forming composition solidifies to form a film.
(§2) The first was by pouring the dispersions onto glass petri dishes. These dispersions were dried at ambient temperature (15-25° C.) in Class 2 cleanroom environment and inspected visually. They referred to the plasticisation level needed to form films at 20±5° C. The same numerical grading system was used to evaluate the mixed films of examples 2 to 4.
(§3) The second method determined the specific MFFT for each formulation. A MFFT bar was used. The hot water bath on one end of the MFFT bar was set at 46±1° C. and the cold water bath on the other end was set at 3±1° C. This created a temperature gradient of 32.5±1.0° C. to 12±1.0° C. across the spreading surface. The temperature gradient across the MFFT bar was allowed to equilibrate for at least two hours prior to use. The temperatures were measured at the beginning and at the end of each experiment using a Jenway 3070 digital-display thermometer. The apparatus was levelled using the adjustable support and a spirit level. The plasticised dispersion formulations were spread across the surface. Once spread, the film was allowed to form at room humidity. After the film had dried, the lowest temperature on the bar at which the film was still continuous was taken as the MFFT. If the film became discontinuous in between two temperature sampling points then the higher of the two sampled temperatures was taken to be the MFFT. All experiments were duplicated. The reported MFFT was an average of the four temperatures taken at the beginning and at the end of each duplicate experiment.
(§4) In the third technique, the required amount of plasticiser, Tween 80™ and the pseudolatex were mixed with a high speed Silverson homogeniser mixer for 3 minutes. The additional plasticiser content of compositions comprising Surelease® has between 0 and 12% by weight of the ethyl cellulose solids. For compositions comprising Aquacoat®, plasticiser contents of between 18 and 30% by weight of the ethyl cellulose solids were investigated. In all cases Tween 80™ was present in an amount of 0.01% by weight of the dispersion. The formulations were left overnight in sealed containers. Any formulations that remained foamy after overnight storage were not investigated further. Otherwise, the formulations were evaluated on the MFFT apparatus. The plasticisers used were dibutyl sebacate, triethyl citrate, triacetin, acetyl tributyl citrate, tributyl citrate, polypropylene glycol, glycerol and polyethylene glycol 400.
In the final technique, Tween 80, the plasticiser and water were premixed into a crude emulsion prior to addition to ethyl cellulose coating dispersions. A plasticiser emulsion was formed by mixing parts of plasticiser and water with 0.1% of Tween 80™ using a Silverson homogeniser mixer. The freshly mixed plasticiser emulsion was then added to the ethyl cellulose coating dispersion by magnetic stirring for 30 minutes. […] Only Aquacoat® ECD30 formulations were investigated. Aquacoat® ECD30 was plasticised with dibutyl sebacate, triethyl citrate, triacetin, acetyl tributyl citrate, tributyl citrate, polypropylene glycol, glycerol and polyethylene glycol 400. The basic formulations comprise between 18 and 36% of plasticiser by weight of solids in the dispersion and 0.1% w/w Tween 80.

[2] = Influence of plasticiser type on the MFFT of Surelease dispersion; type: physicochemical; settings: plasticiser added by high-shear mixing
Protocol: as §1, §2, §3, §4

Row | Structure (SMILES) | Lowering of the MFFT of Aquacoat® [1] | Lowering of the MFFT of Surelease® [2]
1 | CCOC(=O)CC(O)(CC(=O)OCC)C(=O)OCC [triethyl citrate] | lowering the MFFT | 
2 | CCCCOC(=O)CCCCCCCCC(=O)OCCCC [dibutyl sebacate] | successful in lowering the MFFT | successful in lowering the MFFT
3 | OCC(O)CO [glycerol] | unsuccessful | unsuccessful
4 | CC(=O)OCC(COC(C)=O)OC(C)=O [triacetin] | lowering the MFFT | 
5 | CCCCOC(=O)CC(O)(CC(=O)OCCCC)C(=O)OCCCC [tributyl citrate] | successful in lowering the MFFT | successful in lowering the MFFT
6 | CCCCOC(=O)CC(CC(=O)OCCCC)(OC(C)=O)C(=O)OCCCC [acetyl tributyl citrate] | successful in lowering the MFFT | successful in lowering the MFFT
